Source: publication PMC12186255, “Discovery and Characterization of Small Molecule Inhibitors Targeting Exonuclease 1 for Homologous Recombination-Deficient Cancer Therapy” (ACS Chemical Biology, 2025)
Entries after “also recorded” stand apart in the source; their conditions may differ.

Columns and labels:
EXO1 K85A = biological target: T1, EXO1 K85A (Homo sapiens, UniProt Q9UQ84, K85A); experiment: In vitro exonuclease activity of mutant with inhibitors; type: biochemical; details: EXO1 25 nM, DNA substrate 250 nM; C200 0-5 μM, F684 10-40 μM
T1 construct: The N-terminal domain of human EXO1 (hEXO1) (residues 1–345) was cloned into the pET28b vector; made in house; host or cells: E. coli BL21(DE3) and Rosetta 2(DE3)
Protocol: (§1) Simultaneously, we tested the effect of each point mutation on the in vitro exonuclease activity. Most mutations in site 1 result in some loss of enzymatic activity compared to WT EXO1 (Figure S13; WT:Figure S13a), particularly K85A and D225A (Figure S13b,f). […] However, at concentrations of 20 and 40 μM, the mutants (K85A and R92A) behaved more like WT (Figure b).
(§2) In both panels a and b, DMSO without inhibitors was used as a control, and its relative binding activity was set equal to 1.0. The EXO1 enzyme concentration was 25 nM, and the DNA substrate concentration was 250 nM. The values shown are the mean ± S.D. of three independent experiments.
(§3) The N-terminal domain of human EXO1 (hEXO1) (residues 1–345) was cloned into the pET28b vector. The following mutations were introduced via site-directed mutagenesis based on the findings of molecular docking analysis: K85A, E89A, R92A, I125A, D225A, K292A, and K294A (oligonucleotide primers listed in Table S1) following the established protocol.

EXO1 R92A = biological target: T2, EXO1 R92A (Homo sapiens, UniProt Q9UQ84, R92A); experiment: as above; type: biochemical; details: EXO1 25 nM, DNA substrate 250 nM; C200 0-5 μM, F684 10-40 μM
T2 construct: The N-terminal domain of human EXO1 (hEXO1) (residues 1–345) was cloned into the pET28b vector; made in house; host or cells: E. coli BL21(DE3) and Rosetta 2(DE3)
Protocol: as §1, §2, §3

EXO1 = biological target: T3, EXO1 (Homo sapiens, UniProt Q9UQ84); experiment: Inhibitor kinetics by FRET-based EXO1 assay (Michaelis-Menten, Lineweaver-Burk); type: biochemical; details: for V max: Michaelis–Menten plot; for mechanism of EXO1 inhibition: from Michaelis–Menten and Lineweaver–Burk plots
T3 construct: made in house
T3 sequence (Q9UQ84 1-846): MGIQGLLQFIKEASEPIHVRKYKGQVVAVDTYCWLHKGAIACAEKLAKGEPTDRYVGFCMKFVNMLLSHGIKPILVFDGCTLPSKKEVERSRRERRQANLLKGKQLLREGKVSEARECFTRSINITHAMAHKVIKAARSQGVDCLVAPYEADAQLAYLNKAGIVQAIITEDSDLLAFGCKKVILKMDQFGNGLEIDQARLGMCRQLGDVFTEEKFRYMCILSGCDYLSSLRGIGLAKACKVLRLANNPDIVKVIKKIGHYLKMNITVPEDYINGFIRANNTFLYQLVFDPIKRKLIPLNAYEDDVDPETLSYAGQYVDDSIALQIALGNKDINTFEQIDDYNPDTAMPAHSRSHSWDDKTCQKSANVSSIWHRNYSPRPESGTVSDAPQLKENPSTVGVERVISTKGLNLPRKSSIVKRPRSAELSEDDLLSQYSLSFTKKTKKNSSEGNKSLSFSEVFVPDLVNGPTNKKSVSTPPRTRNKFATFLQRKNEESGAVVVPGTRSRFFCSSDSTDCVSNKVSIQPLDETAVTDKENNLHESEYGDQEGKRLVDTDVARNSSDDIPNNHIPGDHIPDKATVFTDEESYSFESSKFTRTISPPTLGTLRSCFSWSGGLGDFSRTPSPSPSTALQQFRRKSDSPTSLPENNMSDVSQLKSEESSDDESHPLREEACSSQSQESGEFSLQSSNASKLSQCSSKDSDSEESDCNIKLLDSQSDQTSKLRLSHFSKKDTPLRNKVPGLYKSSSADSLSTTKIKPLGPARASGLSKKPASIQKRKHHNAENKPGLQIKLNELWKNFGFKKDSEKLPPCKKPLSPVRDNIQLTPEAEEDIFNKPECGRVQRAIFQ
Source text: We then calculated the initial velocity of enzyme activity by calculating the rate within the linear region of the time-dependent RFU.
The initial velocity of enzyme activity was obtained by calculating the rate of the linear region of the time-dependent RFU.

UO-31 = experiment: Cell line drug profiling, CellTiter Glo; type: cell-based; details: Homo sapiens; UO-31, Kidney, 72 h
Protocol: (§4) We tested the cytotoxicity of representative compounds from the seven EXO1i scaffolds against a subset of the NCI-60 cell line panel along with three additional pancreatic cell lines (FG, AsPC1, and CaPan2). In general, cells were seeded in 384-well tissue culture-treated plates overnight and treated with various concentrations of each hit compound (a serial 3-fold dilution from 50 μM for all tested hits). Each concentration was performed in duplicate. Cell viability was then measured by CellTiter Glo (Promega) after 72 h of treatment.

FG = experiment: Cell line drug profiling, CellTiter Glo; type: cell-based; details: Homo sapiens, Pancreatic, 72 h
Protocol: as §4

HL-60(TB) = experiment: Cell line drug profiling, CellTiter Glo; type: cell-based; details: Homo sapiens, Leukemia, 72 h
Protocol: as §4

SK-MEL-28 = experiment: Cell line drug profiling, CellTiter Glo; type: cell-based; details: Homo sapiens; SK-MEL-28, Melanoma, 72 h
Protocol: as §4

AsPC1 = experiment: Cell line drug profiling, CellTiter Glo; type: cell-based; details: Homo sapiens; AsPC1, Pancreatic, 72 h
Protocol: as §4

MCF7 (B3) = experiment: Cell line drug profiling, CellTiter Glo; type: cell-based; details: Homo sapiens, Breast, 72 h
Protocol: as §4

OVCAR-3 = experiment: Cell line drug profiling, CellTiter Glo; type: cell-based; details: Homo sapiens; OVCAR-3, Ovarian, 72 h
Protocol: as §4

CCRF-CEM = experiment: Cell line drug profiling, CellTiter Glo; type: cell-based; details: Homo sapiens, Leukemia, 72 h
Protocol: as §4

ACHN = experiment: Cell line drug profiling, CellTiter Glo; type: cell-based; details: Homo sapiens, Kidney, 72 h
Protocol: as §4

MDA-MB-231 = experiment: Cell line drug profiling, CellTiter Glo; type: cell-based; details: Homo sapiens; MDA-MB-231, Breast, 72 h
Protocol: as §4

BT549 = experiment: Cell line drug profiling, CellTiter Glo; type: cell-based; details: Homo sapiens, BT-549; BT549, Breast, 72 h
Protocol: as §4

SF-268 = experiment: Cell line drug profiling, CellTiter Glo; type: cell-based; details: Homo sapiens; SF-268, Central Nervous System, 72 h
Protocol: as §4

MCF7 = experiment: Cell line drug profiling, CellTiter Glo; type: cell-based; details: Homo sapiens; MCF7, Breast, 72 h
Protocol: as §4

HS 578T = experiment: Cell line drug profiling, CellTiter Glo; type: cell-based; details: Homo sapiens, Breast, 72 h
Protocol: as §4

CaPan2 = experiment: Cell line drug profiling, CellTiter Glo; type: cell-based; details: Homo sapiens, Capan-2; CaPan2, Pancreatic, 72 h
Protocol: as §4

[1] = system: subset of the NCI-60 cell line panel plus FG, AsPC1, CaPan2 (31 cell lines); experiment: Tumor cell line drug profiling, CellTiter Glo, whole panel; type: cell-based; details: Homo sapiens, 72 h, read-out: IC50 values across the cell line panel
Protocol: as §4

T1 sequence (Q9UQ84 1-345 K85A): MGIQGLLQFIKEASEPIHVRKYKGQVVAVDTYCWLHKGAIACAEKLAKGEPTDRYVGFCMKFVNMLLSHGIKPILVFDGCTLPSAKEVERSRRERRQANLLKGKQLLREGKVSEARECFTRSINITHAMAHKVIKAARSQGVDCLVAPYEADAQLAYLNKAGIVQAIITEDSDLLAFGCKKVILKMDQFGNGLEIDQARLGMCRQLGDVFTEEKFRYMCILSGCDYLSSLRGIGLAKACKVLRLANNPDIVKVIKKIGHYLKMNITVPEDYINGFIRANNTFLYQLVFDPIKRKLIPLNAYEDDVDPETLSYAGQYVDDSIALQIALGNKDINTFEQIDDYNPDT
T2 sequence (Q9UQ84 1-345 R92A): as the sequence (Q9UQ84 1-345 K85A) above, with A85K, R92A counted along it

SMILES | inhibitory activity against EXO1 K85A mutant vs WT (EXO1 K85A) | inhibitory activity against EXO1 R92A mutant vs WT (EXO1 R92A) | mechanism of EXO1 inhibition (EXO1) | IC50 (UO-31) [µM] | IC50 (FG) [µM] | IC50 (HL-60(TB)) [µM] | IC50 (SK-MEL-28) [µM] | IC50 (AsPC1) [µM] | IC50 (MCF7 (B3)) [µM] | IC50 (OVCAR-3) [µM] | IC50 (CCRF-CEM) [µM] | IC50 (ACHN) [µM] | IC50 (MDA-MB-231) [µM] | IC50 (BT549) [µM] | IC50 (SF-268) [µM] | IC50 (MCF7) [µM] | IC50 (HS 578T) [µM] | IC50 (CaPan2) [µM] | IC50 [1] [µM] | also measured
Cc1cccc(N2CCN(c3ccc(NS(=O)(=O)c4ccccc4)c(C(=O)O)c3)CC2)c1C [F684] | partially lost its inhibitory effects; also recorded: abolished | partially lost its inhibitory effects; also recorded: abolished | uncompetitive mechanism | 20.6 | 27.5 | 20.1 | 38 | > 50 | 23.6 | 10.9 | 14.6 | 28.9 | 28.6 | 12 | 38.6 | 20.1 | 18.2 | 48.1 | 15 to 25 | V max (EXO1; […] μM F684): 114.1 min^–1
COC(=O)c1nc(-c2ccc(OC)cc2)nc(O)c1O [C200] | did not have a significant | partially lost its inhibitory effect; also recorded: abolished | uncompetitive mechanism | > 50 | > 50 | > 50 | > 50 | > 50 | > 50 | > 50 | 27.4 | > 50 | > 50 | > 50 | > 50 | > 50 | > 50 | > 50 | > 50 | V max (EXO1; 2 μM C200): 415.5 min^–1; IC50 (EXO1; kinetic assays, read-out: IC50 of each compound, used as fixed inhibitor concentration): 2 µM
